Laboratory results reported in the CheMixHub ionic liquid set.
Several values for one entry are separate records, joined by “and”; a condition that tells them apart may be missing. Identical values can stand only once.

Assay: xn = mol fraction of the nth substance listed
Conditions: 101.3 kPa

CCCC[N+]1(C)CCCCC1.F[P-](F)(F)(F)(F)F + CCCC[n+]1cccc(C)c1.F[P-](F)(F)(F)(F)F + CCCC[N+]1(C)CCCC1.F[P-](F)(F)(F)(F)F
viscosity
Conditions | 333.15 K | 338.15 K | 343.15 K | 348.15 K | 353.15 K | 358.15 K | 363.15 K
x2 = 0.2, x1 = 0.32 | – | 194 mPa·s | 152 mPa·s | 121 mPa·s | 98 mPa·s | 80 mPa·s | 66 mPa·s
x2 = 0.3, x1 = 0.28 | – | 163 mPa·s | 129 mPa·s | 103 mPa·s | 84 mPa·s | 69 mPa·s | 57 mPa·s
x2 = 0.4, x1 = 0.06 | – | 111 mPa·s | 89 mPa·s | 72 mPa·s | 60 mPa·s | 50 mPa·s | 42 mPa·s
x2 = 0.4, x1 = 0.12 | – | 121 mPa·s | 97 mPa·s | 78 mPa·s | 64 mPa·s | 53 mPa·s | 45 mPa·s
x2 = 0.4, x1 = 0.18 | – | 125 mPa·s | 100 mPa·s | 81 mPa·s | 66 mPa·s | 55 mPa·s | 46 mPa·s
x2 = 0.4, x1 = 0.24 | – | 137 mPa·s and 138 mPa·s | 109 mPa·s | 87 mPa·s and 88 mPa·s | 71 mPa·s and 72 mPa·s | 59 mPa·s | 49 mPa·s
x2 = 0.4, x1 = 0.3 | – | 145 mPa·s | 115 mPa·s | 92 mPa·s | 75 mPa·s | 62 mPa·s | 51 mPa·s
x2 = 0.4, x1 = 0.36 | – | 155 mPa·s | 122 mPa·s | 97 mPa·s | 79 mPa·s | 65 mPa·s | 54 mPa·s
x2 = 0.4, x1 = 0.42 | – | 165 mPa·s | 129 mPa·s | 103 mPa·s | 83 mPa·s | 68 mPa·s | 56 mPa·s
x2 = 0.4, x1 = 0.48 | – | 176 mPa·s | 137 mPa·s | 109 mPa·s | 88 mPa·s | 71 mPa·s | 59 mPa·s
x2 = 0.4, x1 = 0.54 | – | 188 mPa·s | 146 mPa·s | 116 mPa·s | 93 mPa·s | 75 mPa·s | 62 mPa·s
x2 = 0.5, x1 = 0.2 | – | 117 mPa·s | 93 mPa·s | 75 mPa·s | 62 mPa·s | 51 mPa·s | 43 mPa·s
x2 = 0.6, x1 = 0.16 | 127 mPa·s | 100 mPa·s | 80 mPa·s | 65 mPa·s | 54 mPa·s | 45 mPa·s | 38 mPa·s
x2 = 0.7, x1 = 0.12 | 109 mPa·s | 87 mPa·s | 70 mPa·s | 57 mPa·s | 47 mPa·s | 39 mPa·s | 33 mPa·s
x2 = 0.8, x1 = 0.08 | 95 mPa·s | 76 mPa·s | 61 mPa·s | 50 mPa·s | 42 mPa·s | 35 mPa·s | 30 mPa·s
x2 = 0.9, x1 = 0.04 | 84 mPa·s | 67 mPa·s | 54 mPa·s | 45 mPa·s | 37 mPa·s | 31 mPa·s | 27 mPa·s
